Data as given in patent US20110112155A1, “METHODS FOR TREATING CANCER IN PATIENTS HAVING BREAST CANCER RESISTANCE PROTEIN OVEREXPRESSION” (Bristol-Myers Squibb Company, priority 2008, published 2011).
Like-named read-outs stand apart in the source and are kept apart here.

What was measured:
[1] = system: H1155 lung tumor xenograft overexpressing TUBB3; experiment: In vivo efficacy in TUBB3 overexpressing H1155 lung tumor xenograft; parameters: species or system human; details: H1155 xenograft in nude mice, at maximum tolerated dose; activity = LCK>=1
Protocol: (§1) Cancer cell lines overexpressing TUBB3 were evaluated in vivo in mice for sensitivity to ixabepilone, docetaxel and vinorelbine. These include DU4475 and PAT21 breast, as well as H1155 and LX-1 lung cancer lines. BCRP overexpressing HEK-293 cell line was studied in vitro for sensitivity to ixabepilone, paclitaxel and mitoxantrone.
(§2) In vivo efficacy of ixabepilone was evaluated in TUBB3 overexpressing human breast (DU4475 and PAT21) and lung (H1155 and LX-1) tumor xenograft models • Tumor response was determined by measurement of tumors by caliper twice a week • Tumor weights were estimated using the formula
(§3) Tumor weight=(length×width2)/2 • Tumor response endpoint was expressed in terms of log cell kill (LCK) expressed as
(§4) LCK=(T−C)÷(3.32×TVDT) • T−C, the difference in the time (days) required for the treated tumors (T) to reach a predetermined target size compared with those of the control group (C)
(§5) Tumor volume doubling time=TVDT: Median time (days) for control tumors to reach target size−Median time (days) for control tumors to reach half the target size • Activity was defined as achievement of LCK≧1 • MTD—the dose level immediately above which excessive toxicity (i.e., more then one death) occurred • Statistical evaluations were performed using Gehan's generalized Wilcoxon test

[2] = system: 4 xenografts overexpressing TUBB3 (DU4475, PAT21, H1155, LX-1); experiment: In vivo efficacy across the 4 human tumor xenografts overexpressing TUBB3; details: range across 4 TUBB3 overexpressing xenografts in nude mice, at MTD
Protocol: as §1, §2, §3, §4, §5

[3] = system: DU4475 breast tumor xenograft overexpressing TUBB3; experiment: In vivo efficacy in TUBB3 overexpressing DU4475 breast tumor xenograft; parameters: species or system human; details: DU4475 xenograft in nude mice, at maximum tolerated dose; activity = LCK>=1
Protocol: as §1, §2, §3, §4, §5

[4] = system: Pat-21 breast tumor xenograft overexpressing TUBB3; experiment: In vivo efficacy in TUBB3 overexpressing PAT21 breast tumor xenograft; parameters: species or system human; details: Pat-21 xenograft in nude mice, at maximum tolerated dose; activity = LCK>=1
Protocol: as §1, §2, §3, §4, §5

[5] = system: LX-1 lung tumor xenograft overexpressing TUBB3; experiment: In vivo efficacy in TUBB3 overexpressing LX-1 lung tumor xenograft; parameters: species or system human; details: LX-1 xenograft in nude mice, at maximum tolerated dose; activity = LCK>=1
Protocol: as §1, §2, §3, §4, §5

[6] = system: human lung carcinoma cell line, H441; experiment: BCRP-overexpression dependent resistance in H441 cells; format: cell-based; details: FIG. 8
[7] = system: paclitaxel-sensitive (A2780, HCT116, LS174T) and paclitaxel-resistant (HCT116/VM46, Pat-7, A2780Tax, Pat-21) human tumor models; experiment: Preclinical pharmacology studies of antitumor activity in human tumor models; format: in vivo
[8] = system: BCRP overexpressing HEK293/BCRP cell line; experiment: Cell growth assay in BCRP overexpressing HEK293 cells; format: cell-based
Protocol: as §1
(§6) Compounds and reagents. Ixabepilone, docetaxel and mitoxantrone were solubilized in 100% DMSO at 10 mg/ml for in vitro studies.
(§7) Cell culture: HEK and HEK/BCRP cells were maintained in RPMI-1640 (Gibco) supplemented with 10% heat-inactivated fetal bovine serum and 25 mM HEPES at 37° C./5% CO2.
(§8) Cell growth assays. Cell growth assays were conducted in 6-well culture plates. Cells were plated at a density of 4×10^4 cells/well overnight. Compounds were then added (total DMSO content not exceeding 0.1%). Cell growth was determined by the direct counting of cell number, following trypsinization, using a Coulter Channelyzer.

[9] = system: BCRP; experiment: as above; format: cell-based; details: human, HEK293 cells overexpressing BCRP (HEK293/BCRP); HEK293/BCRP cells, cell growth by cell counting
Protocol: as §1, §6, §7, §8

[10] = system: BCRP overexpressing cells; experiment: Detection of BCRP overexpressing cells by Hoescht 33342 dye and flow cytometry; format: cell-based; details: flow cytometry, FIG. 7
Source text: Determination of BCRP Expression by Flow Cytometry.
Cells were acquired using CellQuest Pro on a FACSCalibur (BD) and analyzed using FlowJo software.

[11] = HEK293/BCRP in comparison with the vector-transfected control line

| Structure (SMILES) | Antitumor Efficacy (LCK) [1] [LCK] | antitumor efficacy, range over the 4 xenografts [2] | Antitumor Efficacy (LCK) [3] [LCK] | Antitumor Efficacy (LCK) [4] [LCK] | Antitumor Efficacy (LCK) [5] [LCK] | IC50 [9] [nM] | resistance factor [8, 11] [fold] | further results |
| --- | --- | --- | --- | --- | --- | --- | --- | --- |
| CC(=O)O[C@@]12CO[C@@H]1C[C@H](O)[C@@]1(C)C(=O)[C@H](O)C3=C(C)[C@@H](OC(=O)[C@H](O)[C@@H](NC(=O)OC(C)(C)C)c4ccccc4)C[C@@](O)([C@@H](OC(=O)c4ccccc4)[C@H]21)C3(C)C [Docetaxel, docetaxel] | 0.2 | 0.2-0.9 LCK | 0.9 | 0.3 | 0.5 |  |  |  |
| C/C(=C\c1csc(C)n1)[C@@H]1C[C@@H]2O[C@]2(C)CCC[C@H](C)[C@H](O)[C@@H](C)C(=O)C(C)(C)[C@@H](O)CC(=O)N1 [Ixabepilone, (1S,3S,7S,10R,11S,12S,16R)-7,11-dihydroxy-8,8,10,12,16-pentamethyl-3-[(1E)-1-methyl-2-(2-methyl-4-thiazolyl)ethenyl]-17-oxa-4-azabicyclo[14.1.0]heptadecane-5,9-dione] | 4.2 |  | 2.6 | 1.6 | 2.6 | 4.1 |  | ability to overcome BCRP-overexpression dependent resistance to taxanes [6]: increased ability; oral efficacy ([7]; oral administration, comparable to parenteral administration): orally efficacious; antitumor activity ([7]; paclitaxel-sensitive and paclitaxel-resistant human colon, ovarian and breast tumor models): very impressive and broad spectrum of antitumor activity; resistance factor [8]: 1.9 fold |
| O=C1c2c(O)ccc(O)c2C(=O)c2c(NCCNCCO)ccc(NCCNCCO)c21 [mitoxantrone] |  |  |  |  |  | 26.4 | 4.1 |  |
| CC(=O)O[C@H]1C(=O)[C@@]2(C)[C@H]([C@H](OC(=O)c3ccccc3)[C@]3(O)C[C@H](OC(=O)[C@H](O)[C@@H](NC(=O)c4ccccc4)c4ccccc4)C(C)=C1C3(C)C)[C@]1(OC(C)=O)CO[C@@H]1C[C@@H]2O [paclitaxel] |  |  |  |  |  | 8.7 | 9.8 |  |
| CCC1=C[C@@H]2CN(C1)Cc1c([nH]c3ccccc13)[C@@](C(=O)OC)(c1cc3c(cc1OC)N(C)[C@H]1[C@@](O)(C(=O)OC)[C@H](OC(C)=O)[C@]4(CC)C=CCN5CC[C@]31[C@@H]54)C2 [Vinorelbine, vinorelbine] | 0.1 | 0.1-0.3 LCK | 0.2 | 0.3 | 0.1 |  |  |  |
| COc1ccc2c3c([nH]c2c1)[C@H](C=C(C)C)N1C(=O)[C@@H]2CCCN2C(=O)[C@@H]1C3 [fumitremorgin C] |  |  |  |  |  |  |  | effect on BCRP overexpressing cells detected with Hoescht 33342 dye [10]: abolition of BCRP overexpressing cells; reversal of BCRP-mediated resistance to paclitaxel and mitoxantrone ([8]; HEK293/BCRP cells): reversed |
